Where two headings read alike, the source gives them in different places.
Assays:
Type in all cases: cell-based
D3R Y198A [1] = target: T1, D3R Y198A (Homo sapiens (Human), UniProt P35462, Y198A); assay: arrestin BRET assay, mutagenesis
Protocol: (§1) BRET arrestin recruitment assay. As an orthogonal test using an unrelated assay of D3R-mediated β-arrestin recruitment, an arrestin BRET assay was conducted.
(§2) […]. […] […]. The Y365A mutation had more dramatic effects. […].

D3R Y365A [2] = target: T2, D3R Y365A (Homo sapiens (Human), UniProt P35462, Y365A); assay: arrestin BRET assay, mutagenesis; conditions: Y365A mutation
Protocol: as §1, §2

[3] = Cytotoxicity screening panel, High Content Screening; conditions: human, HepG2 cells; Mitochondrial Membrane Potential, response direction ↓
Protocol: (§3) HepG2 cells were plated on 384-well tissue culture treated black walled clear bottomed polystyrene plates. The cells were dosed with test compound at a range of concentrations. At the end of the incubation period, the cells were loaded with the relevant dye/antibody for each cell health marker. The plates were then scanned using an automated fluorescent cellular imager, ArrayScan® (Thermo Scientific Cellomics). Cytotoxicity was assessed using a multi-parametric approach using High Content Screening (HCS). The following parameters were screened.
(§4) Nuclear size: An increase in nuclear area can indicate necrosis or G2 cell cycle arrest and a decrease can indicate apoptosis.
(§5) DNA structure: An increase in DNA structure can indicate chromosomal instability and DNA fragmentation.
(§6) Cell membrane permeability: An increase in cell membrane permeability is a general indicator of cell death.
(§7) Mitochondrial mass: A decrease in mitochondrial mass indicates loss of total mitochondria and an increase implies mitochondrial swelling or an adaptive response to cellular energy demands.
(§8) Mitochondrial membrane potential (Δψm): A decrease indicates a loss of mitochondrial membrane potential and mitochondrial toxicity, as well as a potential role in apoptosis signaling, an increase in mitochondrial membrane potential indicates an adaptive response to cellular energy demands.
(§9) Cytochrome c: An increase in cytochrome c release is one of the hallmarks of the apoptosis cascade.

HepG2 cells = assay: as above
Protocol: as §3, §4, §5, §6, §7, §8, §9

D3R Y198A [4] = target: T1, D3R Y198A; assay: Go BRET assay, mutagenesis
Excerpt: (§10) Go BRET activation assay. […].
as §2

D3R Y365A [5] = target: T2, D3R Y365A; assay: Go BRET assay, mutagenesis
Excerpt: as §10, §2

D3R [6] = target: T3, D3R (Homo sapiens (Human), UniProt P35462); assay: Go BRET activation assay; conditions: orthogonal assay
panel of 168 GPCRs [7] = target: panel of 168 GPCRs (Homo sapiens, UniProt Q15077); conditions: GPCR P2RY6; agonist, 10 μM
panel of 168 GPCRs [8] = target: panel of 168 GPCRs (Homo sapiens, UniProt P35346); conditions: GPCR SSTR5; agonist, 10 μM
panel of 168 GPCRs [9] = target: panel of 168 GPCRs (Homo sapiens, UniProt P25101); conditions: GPCR EDNRA; agonist, 10 μM
panel of 168 GPCRs [10] = target: panel of 168 GPCRs (Homo sapiens, UniProt P30874); conditions: GPCR SSTR2; agonist, 10 μM
panel of 168 GPCRs [11] = target: panel of 168 GPCRs (Homo sapiens, UniProt P34972); conditions: GPCR CNR2; agonist, 10 μM
panel of 168 GPCRs [12] = target: panel of 168 GPCRs (Homo sapiens, UniProt P14416); conditions: GPCR DRD2L; agonist, 10 μM
panel of 168 GPCRs [13] = target: panel of 168 GPCRs (Homo sapiens, UniProt P30988); conditions: agonist, 10 μM
panel of 168 GPCRs [14] = target: panel of 168 GPCRs (Homo sapiens, UniProt P51685); conditions: GPCR CCR8; agonist, 10 μM
panel of 168 GPCRs [15] = target: panel of 168 GPCRs (Homo sapiens, UniProt Q9H244); conditions: GPCR P2RY12; agonist, 10 μM
panel of 168 GPCRs [16] = target: panel of 168 GPCRs (Homo sapiens, UniProt P20309); conditions: GPCR CHRM3; agonist, 10 μM
panel of 168 GPCRs [17] = target: panel of 168 GPCRs (Homo sapiens, UniProt P0DMS8); conditions: GPCR ADORA3; agonist, 10 μM
panel of 168 GPCRs [18] = target: panel of 168 GPCRs (Homo sapiens, UniProt P30872); conditions: GPCR SSTR1; agonist, 10 μM
panel of 168 GPCRs [19] = target: panel of 168 GPCRs (Homo sapiens, UniProt P51684); conditions: GPCR CCR6; agonist, 10 μM
D3R [20] = target: T3, D3R; assay: ERK1/2 Phosphorylation assay; conditions: orthogonal assay
D2 DAR = D2 DAR (Homo sapiens (Human), UniProt P14416); conditions: β-arrestin recruitment, agonist; 'curve' = wrapped cell 'curve interrupted'
5HT2B receptor = 5HT2B receptor (Homo sapiens (Human), UniProt P41595); assay: HTRF IP1 accumulation assay (Eurofins Cerep)
D3R [21] = target: T3, D3R; assay: BRET arrestin recruitment assay; conditions: orthogonal assay
[22] = Cell Membrane Permeability, response direction ↑
[23] = Cytochrome c, response direction ↑
[24] = DNA Structure, response direction ↑
[25] = Mitochondrial Mass, response direction ↑
[26] = Nuclear Size, response direction ↑

panel of 168 GPCRs (Homo sapiens, UniProt P30988), sequence (P30988 25-474 limits assumed): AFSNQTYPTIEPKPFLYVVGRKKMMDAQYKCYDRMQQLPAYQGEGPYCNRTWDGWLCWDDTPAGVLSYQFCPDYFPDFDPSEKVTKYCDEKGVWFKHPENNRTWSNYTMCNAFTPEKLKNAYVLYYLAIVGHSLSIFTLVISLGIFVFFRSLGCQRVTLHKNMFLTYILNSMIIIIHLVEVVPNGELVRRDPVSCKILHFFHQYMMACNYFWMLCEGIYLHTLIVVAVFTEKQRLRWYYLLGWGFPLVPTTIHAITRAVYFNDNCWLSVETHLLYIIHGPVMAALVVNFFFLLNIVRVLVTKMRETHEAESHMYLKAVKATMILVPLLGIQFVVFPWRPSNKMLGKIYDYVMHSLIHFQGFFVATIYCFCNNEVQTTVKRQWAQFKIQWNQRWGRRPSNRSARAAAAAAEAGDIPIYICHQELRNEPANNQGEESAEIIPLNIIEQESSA
T2 sequence (P35462 whole entry Y365A): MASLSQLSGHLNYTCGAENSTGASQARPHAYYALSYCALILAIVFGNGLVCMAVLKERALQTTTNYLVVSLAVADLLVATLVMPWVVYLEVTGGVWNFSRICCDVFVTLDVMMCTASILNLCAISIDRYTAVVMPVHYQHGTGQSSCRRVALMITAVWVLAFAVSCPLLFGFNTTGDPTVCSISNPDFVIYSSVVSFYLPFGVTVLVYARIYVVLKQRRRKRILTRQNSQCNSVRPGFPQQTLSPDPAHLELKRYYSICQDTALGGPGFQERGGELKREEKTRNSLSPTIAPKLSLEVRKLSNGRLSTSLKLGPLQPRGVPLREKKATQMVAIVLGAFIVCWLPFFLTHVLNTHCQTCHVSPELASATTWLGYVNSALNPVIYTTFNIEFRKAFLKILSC
T1 sequence (P35462 whole entry Y198A): as the sequence (P35462 whole entry Y365A) above, with Y198A, A365Y counted along it
T3 sequence (P35462 whole entry): as the sequence (P35462 whole entry Y365A) above, with A365Y counted along it
5HT2B receptor, sequence (P41595 whole entry): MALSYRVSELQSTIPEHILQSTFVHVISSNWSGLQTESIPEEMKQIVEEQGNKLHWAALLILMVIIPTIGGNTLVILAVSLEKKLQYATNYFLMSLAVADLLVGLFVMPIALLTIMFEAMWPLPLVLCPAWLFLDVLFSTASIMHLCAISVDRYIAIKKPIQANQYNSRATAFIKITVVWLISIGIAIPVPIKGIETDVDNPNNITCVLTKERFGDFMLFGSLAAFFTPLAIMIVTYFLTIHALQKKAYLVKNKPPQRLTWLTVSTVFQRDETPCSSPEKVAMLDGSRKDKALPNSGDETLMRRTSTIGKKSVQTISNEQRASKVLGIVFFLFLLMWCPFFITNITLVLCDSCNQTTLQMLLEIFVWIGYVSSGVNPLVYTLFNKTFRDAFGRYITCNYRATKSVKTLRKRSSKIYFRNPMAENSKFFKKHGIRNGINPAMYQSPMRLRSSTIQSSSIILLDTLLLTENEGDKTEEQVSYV
panel of 168 GPCRs (Homo sapiens, UniProt P25101), sequence (P25101 21-427 limits assumed): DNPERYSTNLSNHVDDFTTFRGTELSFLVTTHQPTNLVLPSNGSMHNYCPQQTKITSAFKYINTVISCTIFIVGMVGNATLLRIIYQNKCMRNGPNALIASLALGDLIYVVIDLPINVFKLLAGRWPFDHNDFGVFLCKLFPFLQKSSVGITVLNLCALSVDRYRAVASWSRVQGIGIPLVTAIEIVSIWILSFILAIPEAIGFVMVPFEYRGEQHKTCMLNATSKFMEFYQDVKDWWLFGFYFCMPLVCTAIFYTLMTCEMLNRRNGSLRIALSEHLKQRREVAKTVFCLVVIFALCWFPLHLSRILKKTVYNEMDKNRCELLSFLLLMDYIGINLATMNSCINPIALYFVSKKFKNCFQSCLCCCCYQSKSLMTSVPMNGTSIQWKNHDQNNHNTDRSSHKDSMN
D2 DAR, sequence (P14416 whole entry): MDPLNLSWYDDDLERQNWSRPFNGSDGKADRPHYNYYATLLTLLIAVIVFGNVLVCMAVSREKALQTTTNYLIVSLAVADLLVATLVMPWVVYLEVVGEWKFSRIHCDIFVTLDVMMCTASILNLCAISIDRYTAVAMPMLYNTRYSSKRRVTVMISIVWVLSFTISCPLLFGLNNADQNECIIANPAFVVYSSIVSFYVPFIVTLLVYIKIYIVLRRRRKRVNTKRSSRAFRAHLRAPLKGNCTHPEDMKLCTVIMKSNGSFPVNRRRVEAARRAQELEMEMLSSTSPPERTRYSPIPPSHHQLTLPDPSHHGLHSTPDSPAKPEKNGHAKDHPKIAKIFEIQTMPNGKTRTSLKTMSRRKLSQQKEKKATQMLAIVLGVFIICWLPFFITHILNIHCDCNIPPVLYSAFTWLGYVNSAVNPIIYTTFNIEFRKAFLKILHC

COc1ccc(OCCN2CCN(C(=O)c3cc4ccccc4[nH]3)CC2)cc1 [Compound 1, (1H-indol-2-yl)(4-(2-(4-methoxyphenoxy)ethyl)piperazin-1-yl)methanone]
effect of mutation on potency (D3R Y198A [1]): minimal effects on the potency | signaling efficacy, % that of dopamine (D3R Y198A [1]; Y198A mutation): 36% | efficacy, % that of dopamine (D3R Y365A [2]): 210% | potency reduction (D3R Y365A [2]): 440 fold | AC50 [3]: > 50 µM | AC50 (HepG2 cells; [22]): > 50 µM | MEC (HepG2 cells; [22]): 8.58 µM | AC50 (HepG2 cells; [23]): > 50 µM | MEC (HepG2 cells; [23]): 6.03 µM | AC50 (HepG2 cells; [24]): > 50 µM | MEC (HepG2 cells; [24]): 13.9 µM | AC50 (HepG2 cells; [25]): > 50 µM | MEC (HepG2 cells; [25]): 11.9 µM | MEC (HepG2 cells; Mitochondrial Membrane Potential, response direction ↓): 9.28 µM | AC50 (HepG2 cells; [26]): > 50 µM | MEC (HepG2 cells; [26]): 12.0 µM | effect of mutation on potency (D3R Y198A [4]): minimal effects on the potency | signaling efficacy, % that of dopamine (D3R Y198A [4]; Y198A mutation): 64% | effect of mutation on efficacy (D3R Y365A [5]): appeared to be unaffected | potency reduction (D3R Y365A [5]; Y365A mutation): 25,000 fold | agonist activity, G-protein mediated signaling (Go BRET) (D3R [6]): potent and fully efficacious D3R-selective agonist | β-Arrestin Recruitment activity (panel of 168 GPCRs [7]): 6% | β-Arrestin Recruitment activity (panel of 168 GPCRs [8]): 3% | β-Arrestin Recruitment activity (panel of 168 GPCRs [9]): 0% | β-Arrestin Recruitment activity (panel of 168 GPCRs [10]): 0% | β-Arrestin Recruitment activity (panel of 168 GPCRs [11]): −14% | β-Arrestin Recruitment activity (panel of 168 GPCRs [12]): 37% | β-Arrestin Recruitment activity (panel of 168 GPCRs [13]; GPCR CALCR RAMP2): 5% | β-Arrestin Recruitment activity (panel of 168 GPCRs [13]; GPCR CALCR RAMP3): 6% | β-Arrestin Recruitment activity (panel of 168 GPCRs [13]; GPCR CALCR): 0% | β-Arrestin Recruitment activity (panel of 168 GPCRs [14]): 0% | β-Arrestin Recruitment activity (panel of 168 GPCRs [15]): 4% | β-Arrestin Recruitment activity (panel of 168 GPCRs [16]): 0% | β-Arrestin Recruitment activity (panel of 168 GPCRs [17]): 8% | β-Arrestin Recruitment activity (panel of 168 GPCRs [18]): 0% | β-Arrestin Recruitment activity (panel of 168 GPCRs [19]): 0% | agonist activity, ERK phosphorylation (D3R [20]): potent and fully efficacious D3R-selective agonist | D2 Emax (D2 DAR): Curve | inhibition at 10 µM (5HT2B receptor; read-out: inhibition of response elicited by serotonin): 80% | agonist activity, IP1 accumulation (5HT2B receptor; single high concentration of 10 μM): No agonist activity was found | agonist activity, β-arrestin recruitment (BRET) (D3R [21]): potent and fully efficacious D3R-selective agonist
